From patent US7067517B2 (priority 2001, dated 2006) come the findings set out here.

Structures can show the parent of a compound that is named as a salt. Where two headings read alike, the source gives them in different places.

Data set [1] deals with T1, Hormone-sensitive lipase (HSL) (Homo sapiens, UniProt Q05469).
T1 sequence (Q05469 1-1076): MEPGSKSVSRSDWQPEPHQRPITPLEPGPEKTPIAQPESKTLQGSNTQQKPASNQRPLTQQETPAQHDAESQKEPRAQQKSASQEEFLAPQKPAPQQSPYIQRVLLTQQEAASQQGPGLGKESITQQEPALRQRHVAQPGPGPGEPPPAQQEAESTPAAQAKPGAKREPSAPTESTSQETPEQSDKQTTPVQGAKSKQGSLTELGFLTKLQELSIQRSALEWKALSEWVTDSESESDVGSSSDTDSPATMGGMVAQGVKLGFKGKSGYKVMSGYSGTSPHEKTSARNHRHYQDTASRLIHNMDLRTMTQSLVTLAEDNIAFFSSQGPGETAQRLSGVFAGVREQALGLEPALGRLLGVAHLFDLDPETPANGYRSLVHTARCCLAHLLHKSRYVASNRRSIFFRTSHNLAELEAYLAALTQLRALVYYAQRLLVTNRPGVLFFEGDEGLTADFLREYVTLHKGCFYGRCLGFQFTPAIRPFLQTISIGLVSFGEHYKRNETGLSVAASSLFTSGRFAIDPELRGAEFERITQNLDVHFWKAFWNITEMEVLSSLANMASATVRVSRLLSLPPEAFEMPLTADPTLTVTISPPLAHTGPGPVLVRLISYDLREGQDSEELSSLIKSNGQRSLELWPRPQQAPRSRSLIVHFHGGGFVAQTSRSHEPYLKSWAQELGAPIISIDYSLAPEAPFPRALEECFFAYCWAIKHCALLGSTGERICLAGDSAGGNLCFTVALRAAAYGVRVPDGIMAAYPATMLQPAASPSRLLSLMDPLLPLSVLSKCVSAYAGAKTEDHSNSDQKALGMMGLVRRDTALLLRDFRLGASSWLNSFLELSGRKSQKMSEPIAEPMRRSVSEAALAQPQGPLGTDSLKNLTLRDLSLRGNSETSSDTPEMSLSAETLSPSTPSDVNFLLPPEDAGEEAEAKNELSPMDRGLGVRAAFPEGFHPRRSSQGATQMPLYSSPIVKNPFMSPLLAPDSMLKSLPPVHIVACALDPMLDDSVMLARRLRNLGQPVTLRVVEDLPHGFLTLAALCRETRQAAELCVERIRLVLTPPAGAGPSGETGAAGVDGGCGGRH
Kind of data set: Test 2848.2: high-volume screening assay, para-nitrophenyl butyrate (p-NPB) substrate. In kind it is biochemical. Particulars: UV-abs 405 nm, 20 min room temp, % Eff (% Inhibition). An excerpt: Materials. The Hormone-sensitive lipase was provided by Dr. Cecilia Holm, from Lund University Sweden or produced and purified by Novo Nordisk (NN) using the reagents and protocols used by Dr. Holm. The substrates used are: ^3H-labeled triolein (TO) from Amersham, Buckinghamshire, U.K. cat No. TRA191; 5–20 Ci/mmol dissolved in toluene, triolein (Sigma, Cat. No. T-1740), fluorochrome-labeled triacylglyceride (cis-octadec-9-enoic acid 2-[12-(7-nitrobenzo[1,2,5]oxadiazol-4-ylamino)dodecanoyloxy]-1-cis-octadec-9-enoyloxymethyl-ethyl ester) prepared by Novo Nordisk (NN) by conventional methods, and 1,3-(di[^3H]-stearin), 2-(PEG-Boitin)glycerol prepared in collaboration with Amersham Pharmacia Biotech, UK and described in WO 01/073442. Phosphatidyl choline (PC) and phosphatidyl inositol (PI) are from Sigma (St Luis Mo. cat. Nos. P-3556 and P-5954 respectively). All other reagents are of commercial grade and obtained from various commercial sources.
2848.2: This high-volume screening assay uses para-nitrophenyl butyrate (p-NPB) as substrate for HSL. HSL cleaves p-NPB and the reaction is monitored as an increase in the concentration of para-nitrophenol (p-NP). p-NP can be monitored as an increase in UV-absorbance at 405 nm. The reaction is carried out at room-temp. for 20 min. The action is not stopped, but instead UV-abs is measured at a fixed time (20 min.) Due to autohydrolysis of the substrate the reaction is read at t=0 min. too and t=20 min. and the increase in Abs is calculated as the difference between the two readings. When a compound that inhibits HSL is present, it results in a relative decrease in UV-absorbance. % Eff(% Inhibition)=(S−S0Eff)/(SmaxEff−S0Eff)×100 Where S=signal in UV-abs., S0Eff=assaybuffer alone, SmaxEff=Assaybuffer with the lipase inhibitor.

The target in data set [2] is T1, Hormone-sensitive lipase (HSL). The data set is described as follows: biochemical. The settings on record: for activity at 10 µM: read-out: Test 3190.1 HSL_FL % ACTIVITY All. On the procedure:
Materials. The Hormone-sensitive lipase was provided by Dr. Cecilia Holm, from Lund University Sweden or produced and purified by Novo Nordisk (NN) using the reagents and protocols used by Dr. Holm. […] All other reagents are of commercial grade and obtained from various commercial sources.
BSA is added as product receptor. The transfer of the fluorochrome from the lipid phase to the water (BSA) phase changes the fluorescent properties of the fluorochrome. The changes can be monitored on a fluorimeter with an excitation wavelength of 450 nm and an emission wavelength of 545 nm.
Compound and HSL (20 μL compound, 10 μL enzyme and 70 μL PED-BSA buffer) is pre-incubated for 30 min at 25° C. before addition of substrate (100 μL). Amount of formed product is measured after 120 min incubation at 37° C.

Setting [3] is: 10 μM sample concentration, percent activity relative to a non-inhibited sample (no compound).

One may read the melting point as the temperature of the solid-liquid transition.

For `O=C(Nc1ccccc1)n1ncc(S(=O)(=O)c2ccc(Cl)cc2)c1-c1ccc(Cl)cc1` [Example 128, N-Phenyl-4-(4-chlorobenzenesulfonyl)-5-(4-chlorophenyl)-pyrazole-1-carboxamide], the “Test 2848.2 HSL % Inhibition All” value in data set [1] was 33.8%.
As for `Cc1c(Cc2ccccc2)c(=O)oc2cc(OC(=O)N3CCCc4ccccc43)ccc12` [Example 73, 3,4-Dihydro-2H-quinoline-1-carboxylic acid 3-benzyl-4-methyl-2-oxo-2H-chromen-7-yl ester], the activity at 10 µM in data set [2] (setting [3]) is 39%.
Consider `CC12CCC(CC1=NOC(=O)NC1CCCCC1)C2(C)C` (stereo not drawn) [Example 107, 1,7,7-Trimethyl-bicyclo[2.2.1]heptan-2-one O-cyclohexylcarbamoyl-oxime], for which the “Test 2848.2 HSL % Inhibition All” value in data set [1] is 59.9%.
As for `CCN(C(=O)Oc1ccc(Oc2ccc(C(F)(F)F)cc2)cc1)c1ccccc1` [Example 54, Ethyl-phenyl-carbamic acid 4-(4-trifluoromethyl-phenoxy)-phenyl ester], the activity at 10 µM in data set [2] (setting [3]) was 52%.
For the compound `CN(C(=O)Oc1ccc(OC(F)(F)C(F)(F)F)cc1)c1ccccc1` [Example 20], the “Test 3190.1 HSL_FL % ACTIVITY All” value in data set [2] (setting [3]) amounted to 51%.
For the compound `CN(C(=O)Oc1ccc(-c2ccc(Br)cc2)cc1)c1ccccc1` [Example 24, Methyl-phenyl-carbamic acid 4′-bromo-biphenyl-4-yl-ester], the activity at 10 µM in data set [2] is 30%.
For the compound `CCCNC(=O)ON=C(C=Cc1ccc(Br)cc1)CCC(C)C` [Example 111, 1-(4-Bromophenyl)-6-methyl-hept-1-en-3-one O-propylcarbamoyl-oxime], in data set [1], the “Test 2848.2 HSL % Inhibition All” value came out at 36.2%.
On the same count and under the same terms, for `CNC(=O)ON=Cc1c(Br)cnn1Cc1ccc(Cl)cc1` [Example 110, 4-Bromo-2-(4-chlorobenzyl)-2H-pyrazole-3-carbaldehyde O-methylcarbamoyl-oxime] the value was 18.8%.
Same read-out and setting: next, `CN(C)C(=O)Oc1c(-c2ccccc2)cn(Cc2ccccc2)c(=O)c1-c1ccccc1` [Example 131, Dimethyl carbamic acid 1-benzyl-2-oxo-3,5-diphenyl-1,2-dihydro-pyridin-4-yl ester]: 21.6%; `Cc1ccc(NC(C=O)=NOC(=O)NC2CCCCC2)cc1` [Example 104, 2-Oxo-N-p-tolylacetamide O-(cyclohexylcarbamoyl)-oxime]: 19.8%; `CN(C)C(=O)On1ccc2ccc(S(C)(=O)=O)cc21` [Example 114, Dimethylcarbamic acid 6-methanesulfonyl-indol-1-yl ester]: 42.4%.
With `O=C(Nc1ccc(Cl)c(Cl)c1)n1c(-c2ccccc2)nc2ccccc21` [Example 129, N-(3,4-Dichlorophenyl)-2-phenyl-benzimidazole-1-carboxamide], in data set [1], the “Test 2848.2 HSL % Inhibition All” value is 27%.
The same measure, in the same setting: next, `COc1ccc2c(OC(=O)N(C)C)cc(=O)n(C)c2c1` [Example 132, Dimethyl-carbamic acid 7-methoxy-1-methyl-2-oxo-1,2-dihydro-quinolin-4-yl ester]: 19.6%.
`O=C(Oc1ccc(Oc2ccc(C(F)(F)F)cc2)cc1)N1CCN(CCOCCO)CC1` (as salt: hydrochloride) displayed a melting point of 176 to 178 °C.
As to `CC(C)CCC(C=Cc1ccc(Br)cc1)=NOC(=O)NC(C)C` [Example 108, 1-(4-Bromophenyl)-6-methyl-hept-1-en-3-one O-isopropylcarbamoyl-oxime], the “Test 2848.2 HSL % Inhibition All” value in data set [1] is 37.2%.
Consider `CCCCCCC(C=Cc1ccc(Cl)cc1)=NOC(=O)NC1CCCCC1` [Example 106, 1-(4-Chlorophenyl)-non-1-en-3-one O-cyclohexylcarbamoyl-oxime], for which the “Test 2848.2 HSL % Inhibition All” value in data set [1] came out at 23.8%.
As to `O=C(NCCc1ccccc1)n1nc(-c2ccc(Oc3ccccc3)cc2)cc1N1CCOCC1` [Example 127, 5-Morpholin-4-yl-3-(4-phenoxyphenyl)-pyrazole-1-carboxylic acid phenethylamide], the “Test 2848.2 HSL % Inhibition All” value in data set [1] is reported as 58.7%.
In turn, `O=C(Oc1ccc(Oc2ncc(C(F)(F)F)cc2Cl)cc1)N1CCN(Cc2ccccc2)CC1` (as salt: hydrochloride) came in with a melting point of 111 to 113 °C.
Still for that read-out and setting: next, `O=C(Oc1ccc(Oc2ccc(C(F)(F)F)cn2)cc1)N1CCCN(Cc2ccc(-c3ccccc3)cc2)CC1`: 143 °C.
The same measure, in the same setting: next, `O=C(Oc1ccc(Oc2ccc(C(F)(F)F)cn2)cc1)N1CCN(Cc2ccccn2)CC1` (as salt: hydrochloride): 189 to 190 °C.
For the compound `O=C(Nc1ccc(Cl)cc1)n1nc(-c2ccc(Cl)cc2)cc1CCCO` [Example 126, N-(4-Chlorophenyl)-3-(4-chlorophenyl)-5-(3-hydroxypropyl)-pyrazole-1-carboxamide], the “Test 2848.2 HSL % Inhibition All” value in data set [1] is recorded as 33%.
On the same count and under the same terms, next, `CCCCCCC(C=Cc1ccc(Cl)cc1)=NOC(=O)NC(C)C` [Example 109, 1-(4-Chloro-phenyl)-non-1-en-3-one O-isopropylcarbamoyl-oxime]: 15.9%.
On the same count and under the same terms, next, `CC(C)Sc1nnc(OC(=O)N(C)C)n1-c1cccc(C(F)(F)F)c1` [Example 130, Dimethyl-carbamic acid 5-isopropylsulfanyl-4-(3-trifluoromethyl-phenyl)-4H-[1,2,4]triazol-3-yl ester]: 30.1%; `O=C(NC1CCCCC1)ON=C1c2ccccc2CCc2ccccc21` [Example 105, 10,11-Dihydro-dibenzo[a,d]cyclohepten-5-one O-cyclohexylcarbamoyl-oxime]: 26.8%.
`O=C(Oc1ccc(Oc2ccc(C(F)(F)F)cn2)cc1)N1CCN(c2cnccn2)CC1`: the melting point is 160 to 161 °C.
As for `CN(C)C(=O)On1nnc2ccccc2c1=O` [Example 116, Dimethylcarbamic acid 4-oxo-1,2,3-benzotriazin-3-yl ester], the “Test 2848.2 HSL % Inhibition All” value in data set [1] was 23.5%.
Turning to `O=C(Oc1ccc(Oc2ccc(C(F)(F)F)cn2)cc1)N1CCN(Cc2cccc(F)c2)CC1` (as salt: hydrochloride), the melting point is 138 to 139 °C.
As for `CCCCN1CCN(C(=O)Oc2ccc(Oc3ccc(C(F)(F)F)cn3)cc2)CC1` (as salt: hydrochloride), the melting point is 221 to 222 °C.
Compound `O=C(Oc1ccc(Oc2ccc(C(F)(F)F)cn2)cc1)N1CCN(CCO)CC1` (as salt: hydrochloride) returned a melting point of 255 °C.
The same measure, in the same setting: next, `Cc1c(Cc2ccc(F)cc2)c(=O)oc2cc(OC(=O)N(C)c3ccccc3)ccc12`: 185 to 186 °C.
